In patent US8431596B2 (Cancer Research Technology Limited, priority 2007, dated 2013):

Biological target: T1, AXL (human catalytic domain) (Homo sapiens, UniProt P30530)
T1 construct: purchased Upstate Ltd. 14-512
T1 sequence (P30530 473-894): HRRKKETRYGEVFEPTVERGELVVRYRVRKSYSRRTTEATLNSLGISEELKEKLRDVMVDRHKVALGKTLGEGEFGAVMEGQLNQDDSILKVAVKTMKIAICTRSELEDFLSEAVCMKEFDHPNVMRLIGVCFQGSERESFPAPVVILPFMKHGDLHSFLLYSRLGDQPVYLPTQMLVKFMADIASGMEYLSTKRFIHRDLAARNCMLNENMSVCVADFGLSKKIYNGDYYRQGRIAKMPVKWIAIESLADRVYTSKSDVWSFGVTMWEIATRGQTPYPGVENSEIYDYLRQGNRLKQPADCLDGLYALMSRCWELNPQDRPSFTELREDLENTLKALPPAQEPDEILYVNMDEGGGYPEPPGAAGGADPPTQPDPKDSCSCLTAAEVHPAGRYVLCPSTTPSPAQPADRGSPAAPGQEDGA
Assay: AXL (human catalytic domain) Enzyme Activity Assay (IMAP fluorescence polarisation)
Type: biochemical
In short: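 IMAP FP readout (Ex485/Em535, after overnight binding) measured inhibition of the human AXL catalytic domain (aa473-894, 15 nM final) acting on 100 nM 5FAM-CSK-tide at 150 μM ATP, equal to KM. Reactions ran 60 min at room temperature in pH 7.0 HEPES buffer; IC50 from 10-point curves.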

[1] = first data set, recombinant AXL isoform 1 aa473-894, 150 μM ATP
[2] = further data set (WW-001 through WW-169, XX-001 through XX-469, YY-001 through YY-016, ZZ-001 through ZZ-003), 150 μM ATP

Structure (SMILES)	IC50 [1] [nM]	IC50 [2] [nM]
CNCCOc1ccc(Nc2nc3cccc(-c4ccc5c(c4)OCO5)n3n2)cc1 [XX-049]	< 1000	100 to 1000
c1cc(-c2ccc3c(c2)CCO3)n2nc(Nc3ccc(OCCN4CCCCC4)cc3)nc2c1 [XX-052]	< 1000	100 to 1000
CNc1ccc(Nc2nc3cccc(-c4ccc(OC)cc4)n3n2)cc1 [XX-056]	1000 to 10000	1000 to 10000
COc1ccc(-c2cccc3nc(Nc4ccc(N(C)C)cc4)nn23)cc1 [XX-057]	1000 to 10000	1000 to 10000
c1cc(-c2ccc3c(c2)CCO3)n2nc(Nc3ccc(N4CCNCC4)cc3)nc2c1 [XX-059]	< 1000	100 to 1000
COc1ccc(-c2cccc3nc(Nc4cccc(N)c4)nn23)cc1 [XX-061, N-[5-(4-Methoxy-phenyl)-[1,2,4]triazolo[1,5-a]pyridin-2-yl]-benzene-1,3-diamine]	1000 to 10000	1000 to 10000
COc1ccc(-c2cccc3nc(Nc4ccc5c(c4)OCCCO5)nn23)cc1 [XX-062]	1000 to 10000	1000 to 10000
COc1ccc(-c2cccc3nc(Nc4ccc(S(N)(=O)=O)cc4)nn23)cc1 [XX-063]	1000 to 10000	1000 to 10000
COc1ccc(-c2cccc3nc(Nc4ccc(OCCN(C)Cc5ccccc5)cc4)nn23)cc1 [XX-064]	< 1000	100 to 1000
Cc1cc(Nc2nc3cccc(-c4ccc5c(c4)OCCO5)n3n2)ccc1OCC(N)=O [XX-071]	1000 to 10000	1000 to 10000
CC(Oc1ccc(Nc2nc3cccc(-c4ccc5c(c4)OCCO5)n3n2)cc1)C(N)=O (stereo not shown) [XX-072]	< 1000	100 to 1000
NC(=O)COc1ccc(Nc2nc3cccc(-c4ccc5c(c4)OCCO5)n3n2)cc1 [XX-073]	< 1000	100 to 1000
CN(C)CCOc1ncc(Nc2nc3cccc(-c4ccc5c(c4)OCCO5)n3n2)cn1 [XX-078]	< 1000	100 to 1000
CN(C)CCNC(=O)c1ccc(Nc2nc3cccc(-c4ccc5c(c4)OCO5)n3n2)cc1 [XX-087]	< 1000	100 to 1000
CNCCOc1cccc(Nc2nc3cccc(-c4ccc5c(c4)OCO5)n3n2)c1 [XX-088]	< 1000	100 to 1000
CCOC(=O)c1cccc(-c2cccc3nc(Nc4ccc(OCCN5CCCC5)cc4)nn23)c1 [XX-089]	–	1000 to 10000
OCc1cccc(-c2cccc3nc(Nc4ccc(OCCN5CCCC5)cc4)nn23)c1 [XX-090, (3-{2-[4-(2-Pyrrolidin-1-yl-ethoxy)-phenylamino]-[1,2,4]triazolo[1,5-a]pyridin-5-yl}-phenyl)-methanol]	–	≤ 100
CS(=O)(=O)OCCn1cc(-c2cccc3nc(Nc4ccc(OCCN5CCCC5)cc4)nn23)cn1 [XX-091, Methanesulfonic acid 2-(4-{2-[4-(2-pyrrolidin-1-yl-ethoxy)-phenylamino]-[1,2,4]triazolo[1,5-a]pyridin-5-yl}-pyrazol-1-yl)-ethyl ester]	–	100 to 1000
CC(C)(C)CNC(=O)Cn1cc(-c2cccc3nc(Nc4ccc(OCCN5CCCC5)cc4)nn23)cn1 [XX-092, N-(2,2-Dimethyl-propyl)-2-(4-{2-[4-(2-pyrrolidin-1-yl-ethoxy)-phenylamino]-[1,2,4]triazolo[1,5-a]pyridin-5-yl}-pyrazol-1-yl)-acetamide]	–	1000 to 10000
CN1CCOc2cc(-c3cccc4nc(Nc5ccc(OCCN6CCCC6)cc5)nn34)ccc21 [XX-093]	–	100 to 1000

Structure (SMILES)	IC50 [1] [nM]	IC50 [2] [nM]
Cc1cc(-c2cccc3nc(Nc4ccc(OCCN5CCCC5)cc4)nn23)ccc1N(C)C [XX-094]	–	100 to 1000
COc1cc(Nc2nc3cccc(-c4ccc5c(c4)OCCN5C)n3n2)ccc1OCCN1CCCC1 [XX-095]	–	100 to 1000
CCN(CC)CCOc1cccc(Nc2nc3cccc(-c4ccc5c(c4)OCCN5C)n3n2)c1 [XX-096]	–	100 to 1000
c1cc(-c2ccc3c(c2)OCCO3)n2nc(Nc3cnc(OCCN4CCCC4)nc3)nc2c1 [XX-097]	–	100 to 1000
c1cc(-c2ccc3c(c2)OCCO3)n2nc(Nc3cnc(OCCN4CCCCC4)nc3)nc2c1 [XX-098]	–	1000 to 10000
c1cc(-c2ccc3c(c2)OCCO3)n2nc(Nc3ccnc(OCCN4CCCC4)c3)nc2c1 [XX-099]	–	100 to 1000
c1cc(Nc2nc3cccc(-c4ccc5c(c4)OCCO5)n3n2)cc(OCCN2CCCC2)c1 [XX-100]	–	100 to 1000
c1cc(-c2ccc3c(c2)OCCO3)n2nc(Nc3ccnc(OCCN4CCCCC4)c3)nc2c1 [XX-101]	–	≤ 100
c1cc(-c2ccc3c(c2)OCCO3)n2nc(Nc3ccc(OCCN4CCCC4)nc3)nc2c1 [XX-102]	–	100 to 1000
CNCCOc1ccc(Nc2nc3cccc(-c4ccc5c(c4)OCCO5)n3n2)cc1C [XX-103]	–	100 to 1000
O=C(CCN1CCCC1)Nc1ccc(Nc2nc3cccc(-c4ccc5c(c4)OCCO5)n3n2)cc1 [XX-104]	–	100 to 1000
c1cc(-c2ccc3c(c2)OCCO3)n2nc(Nc3ccc(NCCN4CCCC4)cc3)nc2c1 [XX-105]	–	100 to 1000
c1cc(-c2ccc3c(c2)OCCO3)n2nc(Nc3ccc(OCCN4CCCCC4)nc3)nc2c1 [XX-106]	–	100 to 1000
O=C(CN1CCCC1)Nc1cccc(Nc2nc3cccc(-c4ccc5c(c4)OCCO5)n3n2)c1 [XX-107]	–	100 to 1000
NCCSc1ccc(Nc2nc3cccc(-c4ccc5c(c4)OCCO5)n3n2)cc1 [XX-108]	–	≤ 100
O=C(CCN1CCCC1)Nc1cccc(Nc2nc3cccc(-c4ccc5c(c4)OCCO5)n3n2)c1 [XX-109]	–	100 to 1000
O=C(NCCN1CCCC1)c1ccc(Nc2nc3cccc(-c4ccc5c(c4)OCCO5)n3n2)cc1 [XX-110]	–	≤ 100
CN1CCN(C(=O)c2ccc(Nc3nc4cccc(-c5ccc6c(c5)OCCO6)n4n3)cc2)CC1 [XX-111]	–	100 to 1000
COc1cc(Nc2nc3cccc(-c4ccc5c(c4)OCCO5)n3n2)ccc1OCCN(C)C [XX-112]	–	100 to 1000
O=C(NCCN1CCCC1)c1cccc(Nc2nc3cccc(-c4ccc5c(c4)OCCO5)n3n2)c1 [XX-113]	–	≤ 100

The remaining lines, values ahead:

IC50 [1] [nM]	IC50 [2] [nM]	Structure (SMILES)
< 1000	≤ 100	c1cc(-c2ccc3occc3c2)n2nc(Nc3ccc(OCCN4CCCCC4)cc3)nc2c1 [XX-050]
< 1000	≤ 100	CN(C)CCOc1ccc(Nc2nc3cccc(-c4ccc5occc5c4)n3n2)cc1 [XX-051]
< 1000	≤ 100	CN(C)CCOc1ccc(Nc2nc3cccc(-c4ccc5c(c4)CCO5)n3n2)cc1 [XX-053]
< 1000	≤ 100	c1cc(-c2ccc3c(c2)OCCO3)n2nc(Nc3ccc(OCCN4CCCCC4)cc3)nc2c1 [XX-054]
< 1000	≤ 100	CN(C)CCOc1ccc(Nc2nc3cccc(-c4ccc5c(c4)OCCO5)n3n2)cc1 [XX-055]
< 1000	≤ 100	c1cc(-c2ccc3occc3c2)n2nc(Nc3ccc(N4CCNCC4)cc3)nc2c1 [XX-058]
< 1000	≤ 100	c1cc(-c2ccc3c(c2)OCCO3)n2nc(Nc3ccc(N4CCNCC4)cc3)nc2c1 [XX-060]
< 1000	≤ 100	COc1ccc(-c2cccc3nc(Nc4ccc(OCCN(C)CCO)cc4)nn23)cc1 [XX-065]
< 1000	≤ 100	COc1ccc(-c2cccc3nc(Nc4ccc(OCCN5CCCC5)c(OC)c4)nn23)cc1 [XX-066]
< 1000	≤ 100	COc1ccc(-c2cccc3nc(Nc4ccc(OCCN(C)Cc5ccc(N)cc5)cc4)nn23)cc1 [XX-067]
< 1000	≤ 100	NCc1cc2cc(Nc3nc4cccc(-c5ccc6c(c5)OCCO6)n4n3)ccc2o1 [XX-068]
< 1000	≤ 100	CNCCCOc1cccc(Nc2nc3cccc(-c4ccc5c(c4)OCCO5)n3n2)c1 [XX-069]
< 1000	≤ 100	CN(C)CCOc1cccc(Nc2nc3cccc(-c4ccc5c(c4)OCCO5)n3n2)c1 [XX-074]
< 1000	≤ 100	CCN(CC)CCOc1ccc(Nc2nc3cccc(-c4ccc5c(c4)OCCO5)n3n2)cc1 [XX-075]
< 1000	≤ 100	CCN(CC)CCOc1cccc(Nc2nc3cccc(-c4ccc5c(c4)OCCO5)n3n2)c1 [XX-076]
< 1000	≤ 100	CN1CCN(CCOc2ccc(Nc3nc4cccc(-c5ccc6c(c5)OCCO6)n4n3)cc2)CC1 [XX-077]
< 1000	≤ 100	CN(C)CCOc1cc(Nc2nc3cccc(-c4ccc5c(c4)OCCO5)n3n2)ccn1 [XX-079]
< 1000	≤ 100	CN(C)CCNC(=O)c1cccc(Nc2nc3cccc(-c4ccc5c(c4)OCCO5)n3n2)c1 [XX-080]
< 1000	≤ 100	CNCCOc1cccc(Nc2nc3cccc(-c4ccc5c(c4)OCCO5)n3n2)c1 [XX-081]
< 1000	≤ 100	CN(C)C/C=C/c1ccc(Nc2nc3cccc(-c4ccc5c(c4)OCCO5)n3n2)cc1 [XX-082]
< 1000	≤ 100	CN(C)C/C=C/c1cccc(Nc2nc3cccc(-c4ccc5c(c4)OCCO5)n3n2)c1 [XX-083]
< 1000	≤ 100	CN(C)CCNC(=O)c1ccc(Nc2nc3cccc(-c4ccc5occc5c4)n3n2)cc1 [XX-084]
< 1000	≤ 100	CN(C)CCNC(=O)c1cccc(Nc2nc3cccc(-c4ccc5occc5c4)n3n2)c1 [XX-085]
< 1000	≤ 100	CNCCOc1cccc(Nc2nc3cccc(-c4ccc5occc5c4)n3n2)c1 [XX-086]
